For the assay, the system named is separation anxiety in dogs. The settings on record: Example 6: mixed breed dog, behavioural modification supported by fluoxetine.

Experimental: Oromucosal dexmedetomidine gel was then administered to buccal/gingival mucosa of the dog with a syringe using a dose of 125 μg/m^2 of dexmedetomidine hydrochloride about 15 minutes prior to unscheduled departures such as shopping and visiting friends.

Consider `CNCCC(Oc1ccc(C(F)(F)F)cc1)c1ccccc1` (centres unmarked) [fluoxetine], for which the “effect of conventional therapy on regular daily work departures” value is “enabled trouble free leaving dog at home during regular daily work departures”. Besides, for the setting “before gel”, the “signs of separation anxiety at unscheduled departures under conventional therapy” value is on record as “still showed signs of sepration anxiety to unscheduled departures”.

The record behind these values is patent publication US20200069650A1, “DEXMEDETOMIDINE OR MEDETOMIDINE FOR USE IN TREATING SEPARATION ANXIETY IN DOGS” (Orion Corporation, priority 2016, published 2020).
